The source of these data is article PMC3412733, “Identification and recombinant expression of anandamide hydrolyzing enzyme from Dictyostelium discoideum” (BMC Microbiology, 2012).

The target of the assay is T1, MBP-FAAH (Dictyostelium FAAH) (Dictyostelium discoideum, UniProt Q8MMR8).
T1 construct: gene DDB_G0275967; full length (637 residues) with N-terminal MBP and 6xHis tags kept, expressed in E. coli BL21(DE3) (pCWMalET), amylose resin purified
T1 sequence (Q8MMR8 1-637): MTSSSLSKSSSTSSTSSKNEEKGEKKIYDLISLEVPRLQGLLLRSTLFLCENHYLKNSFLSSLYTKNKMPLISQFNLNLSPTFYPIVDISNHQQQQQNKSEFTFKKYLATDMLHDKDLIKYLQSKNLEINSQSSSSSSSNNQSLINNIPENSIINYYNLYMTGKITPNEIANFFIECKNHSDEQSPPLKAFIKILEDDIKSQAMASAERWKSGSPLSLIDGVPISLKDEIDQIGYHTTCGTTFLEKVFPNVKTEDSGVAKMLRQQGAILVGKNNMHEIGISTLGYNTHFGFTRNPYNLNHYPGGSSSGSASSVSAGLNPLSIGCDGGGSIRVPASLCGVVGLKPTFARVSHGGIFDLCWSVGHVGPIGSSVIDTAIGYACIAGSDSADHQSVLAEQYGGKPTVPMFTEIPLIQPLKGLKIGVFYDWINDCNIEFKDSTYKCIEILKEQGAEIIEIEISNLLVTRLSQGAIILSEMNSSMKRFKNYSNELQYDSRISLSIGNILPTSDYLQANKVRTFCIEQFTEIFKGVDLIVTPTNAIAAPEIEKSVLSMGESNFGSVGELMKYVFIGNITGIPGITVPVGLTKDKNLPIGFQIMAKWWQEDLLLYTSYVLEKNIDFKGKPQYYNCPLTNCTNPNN
Put plainly: CE-ES-MS of product arachidonic acid. Format: biochemical. The conditions noted are these: pH 9.0, 50 mM NaCl, 10% DMSO, 37°C, 30 min.

As for `CCCCC/C=C\C/C=C\C/C=C\C/C=C\CCCC(=O)NCCO` [anandamide], the “CE-ES-MS of product arachidonic acid” value is “hydrolyzed anandamide to free arachidonic acid and ethanolamine as determined by CE-ES-MS”.
